Experimental data as given in patent publication US20240408099A1, “COMBINATION […] OF KRAS G12D INHIBITORS WITH Pan ErbB FAMILY INHIBITORS” (MIRATI THERAPEUTICS, INC., priority 2021, published 2024).

Tested on: HPAC cells
Assay: HPAC TGI 73 pancreatic cancer xenograft, tumor volumes
Type: in vivo, nude/nude mice
Details: for Average Tumor Volumes: 50 mg/kg PO daily
Experimental: Immunocompromised nude/nude mice are inoculated in the right hind flank with cells harboring a KRas G12D mutation. When tumor volumes reach between 200-400 mm^3 in size, the mice are divided into four to five groups of 5 mice each. The first group is administered vehicle only. […] The fourth or last groups are administered the single agent dose of the KRas G12D inhibitor using the twice daily schedule and/or the 2 sequential days followed by 5 days off schedule in combination with the single agent dose of one of the EGFR inhibitors. The treatment period varies from cell line to cell line but typically is between 15-40 days. Tumor volumes are measured using a caliper every two-three days and tumor volumes are calculated by the formula: […].
Experimental Procedures. 20 nude/nude mice were inoculated with HPAC cells in the right hind flank. When the tumors reached ˜200 mm^3 four treatment groups were established with five mice per group.

## C#Cc1cccc(Nc2ncnc3cc(OCCOC)c(OCCOC)cc23)c1 [Erlotinib, [6,7-Bis-(2-methoxy-ethoxy)-quinazolin-4-yl]-(3-ethynyl-phenyl)-amine, reference compound]
Study Day 0
  Average Tumor Volumes: 197.582 mm^3
Study Day 3
  Average Tumor Volumes: 320.132 mm^3
Study Day 7
  Average Tumor Volumes: 421.908 mm^3
Study Day 10
  Average Tumor Volumes: 587.79 mm^3
Study Day 14
  Average Tumor Volumes: 705.688 mm^3
Study Day 17
  Average Tumor Volumes: 856.214 mm^3
Study Day 21
  Average Tumor Volumes: 945.702 mm^3
50 mg/kg daily, single agent, Day 21
  tumor growth inhibition: 35%
